Converted amounts (≈) assume the structure as drawn.

Type in all cases: functional
One assay deals with Staphylococcus aureus. Description: Antibacterial activity against Staphylococcus aureus 26003 after 24 hrs by agar dilution method. (In general: Agar dilution tests growth on a series of plates holding different concentrations.)
For assay [1], the system named is Staphylococcus epidermidis. Description: Antibacterial activity against Staphylococcus epidermidis 26069 after 24 hrs by agar dilution method.
The subject of a further assay is Streptococcus pneumoniae. Kind of assay: Antibacterial activity against Streptococcus pneumoniae 31002 after 24 hrs by agar dilution method.
Another assay relates to Shigella boydii. Description: Antibacterial activity against Shigella boydii 51313 after 24 hrs by agar dilution method.
In a further assay the test system is Klebsiella pneumoniae. Description: Antibacterial activity against Klebsiella pneumoniae 46101 after 24 hrs by agar dilution method.
In the next assay the test system is Salmonella. Kind of assay: Antibacterial activity against […] 48107 after 24 hrs by agar dilution method.

As usually defined, the MIC is the lowest concentration found to suppress growth. In the case of `CCNCc1c(F)cc2c(=O)c(C(=O)O)cn(CC)c2c1F`, the MIC with Staphylococcus aureus is over 6.25 µg/mL; in assay [1] it was over 6.25 µg/mL; with Streptococcus pneumoniae, 3.13 µg/mL (≈ 10.1 µM); in the assay with Shigella boydii, 0.39 µg/mL (≈ 1.26 µM); in the assay on Klebsiella pneumoniae, 0.195 µg/mL (≈ 0.628 µM); against Salmonella it was 0.39 µg/mL (≈ 1.26 µM).

For the compound `CCNCc1c(F)cc2c(=O)c(C(=O)O)cn3c2c1OC[C@@H]3C`, the MIC was over 6.25 µg/mL in the assay on Staphylococcus aureus; over 6.05 µg/mL in assay [1]; 1.56 µg/mL (≈ 4.87 µM) against Streptococcus pneumoniae; 0.195 µg/mL (≈ 0.609 µM) against Shigella boydii; 0.049 µg/mL (≈ 0.153 µM) in the assay on Klebsiella pneumoniae; 0.195 µg/mL (≈ 0.609 µM) with Salmonella.

Turning to `CCCNCc1c(F)cc2c(=O)c(C(=O)O)cn3c2c1OC[C@@H]3C`, the MIC in the assay on Staphylococcus aureus is over 6.25 µg/mL; in assay [1], over 6.25 µg/mL; in the assay on Streptococcus pneumoniae, 3.13 µg/mL (≈ 9.36 µM); in the assay on Shigella boydii it was 0.39 µg/mL (≈ 1.17 µM); in the assay with Klebsiella pneumoniae it was 0.195 µg/mL (≈ 0.583 µM); with Salmonella, 0.39 µg/mL (≈ 1.17 µM).

On to `CC(C)NCc1c(F)cc2c(=O)c(C(=O)O)cn3c2c1OC[C@@H]3C`, for which the MIC was over 6.25 µg/mL against Staphylococcus aureus; over 6.25 µg/mL in assay [1]; 3.13 µg/mL (≈ 9.36 µM) in the assay on Streptococcus pneumoniae; 0.39 µg/mL (≈ 1.17 µM) in the assay on Shigella boydii; 0.195 µg/mL (≈ 0.583 µM) against Klebsiella pneumoniae; 0.39 µg/mL (≈ 1.17 µM) in the assay on Salmonella.

Turning to `C[C@H]1COc2c(CNC3CC3)c(F)cc3c(=O)c(C(=O)O)cn1c23`, the MIC against Staphylococcus aureus is 3.13 µg/mL (≈ 9.42 µM); in assay [1], over 6.25 µg/mL; in the assay with Streptococcus pneumoniae, 0.39 µg/mL (≈ 1.17 µM); in the assay on Shigella boydii, 0.049 µg/mL (≈ 0.147 µM); in the assay with Klebsiella pneumoniae it was 0.049 µg/mL (≈ 0.147 µM); in the assay with Salmonella it was 0.049 µg/mL (≈ 0.147 µM).

With `C[C@H]1COc2c(CN3CCCC3)c(F)cc3c(=O)c(C(=O)O)cn1c23`, the MIC was 6.25 µg/mL (≈ 18 µM) with Staphylococcus aureus; over 6.25 µg/mL in assay [1]; 0.78 µg/mL (≈ 2.25 µM) against Streptococcus pneumoniae; 0.39 µg/mL (≈ 1.13 µM) against Shigella boydii; 0.049 µg/mL (≈ 0.141 µM) in the assay with Klebsiella pneumoniae; 0.098 µg/mL (≈ 0.283 µM) with Salmonella.

Consider `C[C@H]1COc2c(CN3CCCCC3)c(F)cc3c(=O)c(C(=O)O)cn1c23`, for which the MIC in the assay on Staphylococcus aureus was over 6.25 µg/mL; in assay [1], over 6.25 µg/mL; against Streptococcus pneumoniae it was 1.56 µg/mL (≈ 4.33 µM); in the assay with Shigella boydii, 0.78 µg/mL (≈ 2.16 µM); against Klebsiella pneumoniae it was 0.195 µg/mL (≈ 0.541 µM); against Salmonella, 0.39 µg/mL (≈ 1.08 µM).

`C[C@H]1COc2c(CN3CCNCC3)c(F)cc3c(=O)c(C(=O)O)cn1c23`: the MIC against Staphylococcus aureus is over 6.25 µg/mL; in assay [1], over 6.25 µg/mL; against Streptococcus pneumoniae, over 6.25 µg/mL; against Shigella boydii it was over 6.25 µg/mL; in the assay on Klebsiella pneumoniae, 3.13 µg/mL (≈ 8.66 µM); against Salmonella, over 6.25 µg/mL.

With `C[C@H]1COc2c(CN3CCN(C)CC3)c(F)cc3c(=O)c(C(=O)O)cn1c23`, the MIC was over 6.25 µg/mL in the assay with Staphylococcus aureus; over 6.25 µg/mL in assay [1]; 1.56 µg/mL (≈ 4.16 µM) against Streptococcus pneumoniae; 1.56 µg/mL (≈ 4.16 µM) against Shigella boydii; 0.78 µg/mL (≈ 2.08 µM) against Klebsiella pneumoniae; 1.56 µg/mL (≈ 4.16 µM) against Salmonella.

As for `C[C@H]1COc2c(CNc3ccccc3)c(F)cc3c(=O)c(C(=O)O)cn1c23`, the MIC in the assay with Staphylococcus aureus is 1.56 µg/mL (≈ 4.23 µM); in assay [1], 1.56 µg/mL (≈ 4.23 µM); against Streptococcus pneumoniae it was 0.098 µg/mL (≈ 0.266 µM); against Shigella boydii, 0.39 µg/mL (≈ 1.06 µM); against Klebsiella pneumoniae, 0.78 µg/mL (≈ 2.12 µM); against Salmonella it was 0.78 µg/mL (≈ 2.12 µM).

Regarding `C[C@H]1COc2c(CNc3ccc(Cl)cc3)c(F)cc3c(=O)c(C(=O)O)cn1c23`, the MIC is 0.098 µg/mL (≈ 0.243 µM) with Staphylococcus aureus; 0.098 µg/mL (≈ 0.243 µM) in assay [1]; at most 0.049 µg/mL against Streptococcus pneumoniae; 0.195 µg/mL (≈ 0.484 µM) in the assay on Shigella boydii; 0.195 µg/mL (≈ 0.484 µM) in the assay on Klebsiella pneumoniae; 0.098 µg/mL (≈ 0.243 µM) in the assay on Salmonella.

Take `C[C@H]1COc2c(CNc3cccc(Cl)c3)c(F)cc3c(=O)c(C(=O)O)cn1c23`: the MIC against Staphylococcus aureus amounted to 1.56 µg/mL (≈ 3.87 µM); in assay [1], 3.13 µg/mL (≈ 7.77 µM); with Streptococcus pneumoniae it was 0.195 µg/mL (≈ 0.484 µM); in the assay with Shigella boydii, 1.56 µg/mL (≈ 3.87 µM); against Klebsiella pneumoniae it was 6.25 µg/mL (≈ 15.5 µM); against Salmonella, 6.25 µg/mL (≈ 15.5 µM).

On to `C[C@H]1COc2c(CNc3ccc(F)cc3)c(F)cc3c(=O)c(C(=O)O)cn1c23`, for which the MIC was found to be 0.78 µg/mL (≈ 2.02 µM) against Staphylococcus aureus; 0.78 µg/mL (≈ 2.02 µM) in assay [1]; 0.049 µg/mL (≈ 0.127 µM) against Streptococcus pneumoniae; 0.78 µg/mL (≈ 2.02 µM) with Shigella boydii; 0.78 µg/mL (≈ 2.02 µM) against Klebsiella pneumoniae; 0.78 µg/mL (≈ 2.02 µM) in the assay with Salmonella.

On to `C[C@H]1COc2c(CNc3ccc(F)c(Cl)c3)c(F)cc3c(=O)c(C(=O)O)cn1c23`, for which the MIC was 0.098 µg/mL (≈ 0.233 µM) in the assay on Staphylococcus aureus; 0.195 µg/mL (≈ 0.463 µM) in assay [1]; at most 0.049 µg/mL against Streptococcus pneumoniae; 0.195 µg/mL (≈ 0.463 µM) in the assay on Shigella boydii; 0.195 µg/mL (≈ 0.463 µM) in the assay on Klebsiella pneumoniae; 0.39 µg/mL (≈ 0.927 µM) in the assay with Salmonella.

As to `Cc1ccc(NCc2c(F)cc3c(=O)c(C(=O)O)cn4c3c2OC[C@@H]4C)cc1`, the MIC stood at 0.78 µg/mL (≈ 2.04 µM) with Staphylococcus aureus; 3.13 µg/mL (≈ 8.19 µM) in assay [1]; 0.098 µg/mL (≈ 0.256 µM) with Streptococcus pneumoniae; 0.78 µg/mL (≈ 2.04 µM) against Shigella boydii; 3.13 µg/mL (≈ 8.19 µM) in the assay with Klebsiella pneumoniae; 1.56 µg/mL (≈ 4.08 µM) with Salmonella.

Regarding `Cc1ccc(NCc2c(F)cc3c(=O)c(C(=O)O)cn4c3c2OC[C@@H]4C)cc1C`, the MIC with Staphylococcus aureus is 3.13 µg/mL (≈ 7.9 µM); in assay [1], 3.13 µg/mL (≈ 7.9 µM); in the assay with Streptococcus pneumoniae, 0.195 µg/mL (≈ 0.492 µM); in the assay on Shigella boydii, 1.56 µg/mL (≈ 3.94 µM); with Klebsiella pneumoniae, 6.25 µg/mL (≈ 15.8 µM); in the assay on Salmonella, 3.13 µg/mL (≈ 7.9 µM).

For the compound `Cc1cc(C)nc(NCc2c(F)cc3c(=O)c(C(=O)O)cn4c3c2OC[C@@H]4C)c1`, the MIC in the assay on Staphylococcus aureus turned out to be 0.78 µg/mL (≈ 1.96 µM); in assay [1] it was 0.78 µg/mL (≈ 1.96 µM); against Streptococcus pneumoniae, 0.195 µg/mL (≈ 0.491 µM); in the assay on Shigella boydii it was 0.195 µg/mL (≈ 0.491 µM); in the assay on Klebsiella pneumoniae, 0.39 µg/mL (≈ 0.981 µM); with Salmonella it was 0.78 µg/mL (≈ 1.96 µM).

For `C[C@H]1COc2c(CN(C)c3ccc(F)cc3)c(F)cc3c(=O)c(C(=O)O)cn1c23`, the MIC stood at 3.13 µg/mL (≈ 7.82 µM) in the assay on Staphylococcus aureus; 3.13 µg/mL (≈ 7.82 µM) in assay [1]; 0.39 µg/mL (≈ 0.974 µM) with Streptococcus pneumoniae; 1.56 µg/mL (≈ 3.9 µM) against Shigella boydii; 1.56 µg/mL (≈ 3.9 µM) against Klebsiella pneumoniae; 1.56 µg/mL (≈ 3.9 µM) against Salmonella.

`CNCc1c(F)cc2c(=O)c(C(=O)O)cn3c2c1OCC3C` (centres undefined): the MIC was 3.13 µg/mL (≈ 10.2 µM) against Staphylococcus aureus; over 6.25 µg/mL in assay [1]; 3.13 µg/mL (≈ 10.2 µM) in the assay with Streptococcus pneumoniae; 0.098 µg/mL (≈ 0.32 µM) in the assay with Shigella boydii; 0.098 µg/mL (≈ 0.32 µM) in the assay with Klebsiella pneumoniae; at most 0.049 µg/mL against Salmonella.

For the compound `CC1COc2c(CNC3CC3)c(F)cc3c(=O)c(C(=O)O)cn1c23` (centres undefined), the MIC in the assay with Staphylococcus aureus is 3.13 µg/mL (≈ 9.42 µM); in assay [1] it was 3.13 µg/mL (≈ 9.42 µM); in the assay on Streptococcus pneumoniae, 0.39 µg/mL (≈ 1.17 µM); against Shigella boydii, at most 0.049 µg/mL; in the assay on Klebsiella pneumoniae, at most 0.049 µg/mL; against Salmonella, at most 0.049 µg/mL.

Regarding `CC1COc2c(CN3CCCC3)c(F)cc3c(=O)c(C(=O)O)cn1c23` (centres undefined), the MIC is over 6.25 µg/mL in the assay with Staphylococcus aureus; over 6.25 µg/mL in assay [1]; 3.13 µg/mL (≈ 9.04 µM) against Streptococcus pneumoniae; 0.39 µg/mL (≈ 1.13 µM) against Shigella boydii; 0.195 µg/mL (≈ 0.563 µM) in the assay on Klebsiella pneumoniae; 0.39 µg/mL (≈ 1.13 µM) in the assay with Salmonella.

Take `CC1COc2c(CN3CCCCC3)c(F)cc3c(=O)c(C(=O)O)cn1c23` (centres undefined): the MIC in the assay with Staphylococcus aureus was over 6.25 µg/mL; in assay [1], over 6.25 µg/mL; against Streptococcus pneumoniae, 3.13 µg/mL (≈ 8.69 µM); in the assay with Shigella boydii, 0.098 µg/mL (≈ 0.272 µM); against Klebsiella pneumoniae it was 0.39 µg/mL (≈ 1.08 µM); in the assay with Salmonella it was 0.78 µg/mL (≈ 2.16 µM).

For `CC1COc2c(CNc3ccc(Cl)cc3)c(F)cc3c(=O)c(C(=O)O)cn1c23` (centres undefined), the MIC in the assay with Staphylococcus aureus is 0.195 µg/mL (≈ 0.484 µM); in assay [1] it was 0.78 µg/mL (≈ 1.94 µM); with Streptococcus pneumoniae, at most 0.049 µg/mL; in the assay on Shigella boydii, 1.56 µg/mL (≈ 3.87 µM); against Klebsiella pneumoniae, over 6.25 µg/mL; against Salmonella, 1.56 µg/mL (≈ 3.87 µM).

For the compound `CC1COc2c(Cn3ccnc3)c(F)cc3c(=O)c(C(=O)O)cn1c23` (centres undefined), the minimum inhibitory concentration (MIC) was determined as 3.13 µg/mL (≈ 9.12 µM) against Staphylococcus aureus; 3.13 µg/mL (≈ 9.12 µM) in assay [1]; 0.78 µg/mL (≈ 2.27 µM) against Streptococcus pneumoniae; 0.78 µg/mL (≈ 2.27 µM) against Shigella boydii; 0.195 µg/mL (≈ 0.568 µM) with Klebsiella pneumoniae; 0.39 µg/mL (≈ 1.14 µM) with Salmonella.

For the origin of these results see ChEMBL document CHEMBL1137480, “Synthesis and structure-activity relationship of 7-(substituted)-aminomethyl-4-quinolone-3-carboxylic acid derivatives” (2007).
